Test results as given in patent US12162836B2, “N-acyl-{4-[(4-aryl-phenyl)sulfonylmethyl]piperidine} compounds and their therapeutic use” (Modern Biosciences Limited, priority 2019, dated 2024).
Values after ≈ are worked out from the molar mass of the structure shown.

Key:
human hepatocytes = assay: Human Hepatocyte Stability; format: in vitro ADME; settings: for metabolic stability (in words): human hepatocytes
Method: (§1) Metabolic stability of test compounds was measured by determination of the rate of disappearance of the compound when incubated in the presence of human hepatocytes, a primary source of the most important enzymes (cytochrome P450s) involved in drug metabolism. Study of drug stability in the presence of primary hepatocytes is accepted as a valuable model permitting rapid prediction of in vivo drug stability.
(§2) Human hepatocytes were obtained from a commercial source and viability was assessed using a trypan blue solution prior to use. Test compounds (final concentration 1 μM, 0.1 DMSO, 0.9% acetonitrile) or a marker (diclofenac or diltiazem, final assay concentration 1 μM, 0.1% DMSO, 0.9% acetonitrile) were incubated with pooled hepatocytes for a 60 minute period and samples removed at up to 6 time points and analysed by LC-MS/MS for the presence/amount of test compounds.
(§3) Each compound was incubated for 0, 5, 15, 30, 45, or 60 minutes. The reactions were stopped by the addition of methanol containing an internal standard (1 μM Tolbutamide) at the appropriate time points, mixed and placed at −20° C. for 1 hour to quench and allow protein to precipitate. All samples were centrifuged (2500× g, 20 minutes, 4° C.). The aliquots were analysed using LC-MS/MS. Reactions were performed in duplicate at 37° C.
(§4) Data were processed, and the results plotted as In(concentration) vs. time. The elimination rate constant (slope of the regression line, k) was calculated using the following formula, where C(t) is the concentration at time t and C(0) is the starting concentration:
(§5) The half-life (t1/2) was calculated using the following formula: […]
(§6) The intrinsic clearance (Clint) was calculated using the following formula, where [cell] is the hepatocyte concentration in the assay: […]

[1] = tested on: Thp1 human monocytic cells; assay: Thp1 Monocyte ATP Production Assay (ATPlite); format: cell-based; settings: Thp1 cells, 24 hour incubation, mean of 2 independent experiments
Method: In vitro potency of test compounds was determined by incubation with Thp1 human monocytic cells and subsequent determination of Adenosine TriPhosphate (ATP) levels using firefly luciferase.
ATP is present in all metabolically active cells. When cells lose integrity, their ability to synthesise ATP is rapidly lost. […] See, e.g., Kang et al., 2015; Jiang et al., 2013. Levels of ATP can be monitored using a system based on firefly (Photinus pyralis) luciferase (see, e.g., Auld et al., 2009) using commercially available kits. A system known as ATPlite™ was using to measure effects of the test compounds on cellular viability in vitro. This one-step assay system is an adenosine triphosphate (ATP) monitoring system based on the production of light caused by the reaction of ATP from the cells with added luciferase and D-luciferin, as illustrated in the reaction scheme below:
Thp1 cells were plated at 112500 cells per well in 125 μL RPMI-1640 (no glucose) with 1% FBS in 96-well plates. Test compounds were prepared as 100 mM solutions in DMSO. These stock solutions were diluted in DMSO and then diluted 1000× in culture medium (RPMI) before being added directly to the wells so as to give the desired final compound concentration. After a 24 hour incubation at 37° C./5% CO2, ATPLite™ (Perkin Elmer) was added to each well (1:10 v/v, 10 μL). The plate was then incubated at room temperature for 5 minutes and the emitted light was quantified on Viewlux with a measurement time of 0.3 seconds and binning 4×4.
The average results for each test compound were expressed as a percent (%) of the average control value reflecting cell viability. The average values across the concentrations tested were then plotted and the IC50 for was calculated by fitting the data to a 4-parameter IC50 equation using software from Graf it (Erithacus Software). Each experiment was repeated twice and the data are presented as the mean IC50 from both experiments.

[2] = Aqueous solubility in FaSSIF; format: physicochemical; settings: for solubility at 16 h: kinetic from dmso stock, pH 6.5, 16 hours, room temperature
Method: Aqueous solubility was measured by equilibration of compounds with fasted state simulated intestinal fluid (FaSSIF) and quantified spectrophotometrically.
Preparation of blank FaSSIF: 0.21 g of sodium hydroxide (NaOH) pellets, 1.97 g of dihydrogen sodium phosphate (NaH2PO4.2H2O) and 3.09 g of sodium chloride (NaCl) were dissolved in 400 mL of deionised water. The pH was adjusted to 6.5 using 1 M hydrochloric acid and further deionised water added to a final volume of 500 mL.
Preparation of FaSSIF: 0.056 g of SIF Powder (containing sodium taurocholate and lecithin) (Pharses A G) was dissolved in 25 mL of blank FaSSIF and stirred until the powder was completely dissolved. The solution was allowed to stand for 2 hours during which it became opalescent; it was used within 24 hours. The final solution composition was characterised as follows: • Sodium taurocholate: 3 mM • Lecithin: 0.75 mM • Osmolarity: 270±10 mOsmol • pH: 6.5
The optical density was measured at the end of the incubation period for test compounds and a reference used to determine solubility. In brief, two samples were prepared for each determination: a reference sample consisting of a stock solution of test compound in DMSO diluted in system solution (a phosphate free, low absorption buffer) and propanol; and a test sample (prepared in triplicate) consisting of 0.5 mL FaSSIF spiked with test compound at 0.2 mM. Each sample was incubated at room temperature for 16 hours with constant shaking at 250 rpm. At the end of the incubation period, 0.3 mL of each sample was filtered through a pION filter plate (PION, Woburn MA), diluted 1:1 with propanol and scanned using UV spectrophotometry at Amax ([…]) using a Spectra Max Plus—Version 2.1000 (Molecular Devices, Sunnyvale, CA), with pSOL Explorer solubility determination software (pION, Woburn, MA).
FaSSIF solubility was calculated using the following formula:
[formula] • wherein: • “OD” is the optical density; • “Cr” is the concentration of the reference (33.4 μM); and • “molecular weight” is for the test compound (e.g., 381.44 for ABD735).

hERG = hERG (Homo sapiens (Human), UniProt Q12809); assay: hERG Ion Channel binding assay (3H astemizole displacement); settings: human, membranes of HEK293 cells stably expressing hERG, pH 7.4, probe 3H astemizole (1.5 nM); 30 μM; displacement of 3H astemizole, hERG-HEK293 membranes
hERG, sequence (Q12809 whole entry): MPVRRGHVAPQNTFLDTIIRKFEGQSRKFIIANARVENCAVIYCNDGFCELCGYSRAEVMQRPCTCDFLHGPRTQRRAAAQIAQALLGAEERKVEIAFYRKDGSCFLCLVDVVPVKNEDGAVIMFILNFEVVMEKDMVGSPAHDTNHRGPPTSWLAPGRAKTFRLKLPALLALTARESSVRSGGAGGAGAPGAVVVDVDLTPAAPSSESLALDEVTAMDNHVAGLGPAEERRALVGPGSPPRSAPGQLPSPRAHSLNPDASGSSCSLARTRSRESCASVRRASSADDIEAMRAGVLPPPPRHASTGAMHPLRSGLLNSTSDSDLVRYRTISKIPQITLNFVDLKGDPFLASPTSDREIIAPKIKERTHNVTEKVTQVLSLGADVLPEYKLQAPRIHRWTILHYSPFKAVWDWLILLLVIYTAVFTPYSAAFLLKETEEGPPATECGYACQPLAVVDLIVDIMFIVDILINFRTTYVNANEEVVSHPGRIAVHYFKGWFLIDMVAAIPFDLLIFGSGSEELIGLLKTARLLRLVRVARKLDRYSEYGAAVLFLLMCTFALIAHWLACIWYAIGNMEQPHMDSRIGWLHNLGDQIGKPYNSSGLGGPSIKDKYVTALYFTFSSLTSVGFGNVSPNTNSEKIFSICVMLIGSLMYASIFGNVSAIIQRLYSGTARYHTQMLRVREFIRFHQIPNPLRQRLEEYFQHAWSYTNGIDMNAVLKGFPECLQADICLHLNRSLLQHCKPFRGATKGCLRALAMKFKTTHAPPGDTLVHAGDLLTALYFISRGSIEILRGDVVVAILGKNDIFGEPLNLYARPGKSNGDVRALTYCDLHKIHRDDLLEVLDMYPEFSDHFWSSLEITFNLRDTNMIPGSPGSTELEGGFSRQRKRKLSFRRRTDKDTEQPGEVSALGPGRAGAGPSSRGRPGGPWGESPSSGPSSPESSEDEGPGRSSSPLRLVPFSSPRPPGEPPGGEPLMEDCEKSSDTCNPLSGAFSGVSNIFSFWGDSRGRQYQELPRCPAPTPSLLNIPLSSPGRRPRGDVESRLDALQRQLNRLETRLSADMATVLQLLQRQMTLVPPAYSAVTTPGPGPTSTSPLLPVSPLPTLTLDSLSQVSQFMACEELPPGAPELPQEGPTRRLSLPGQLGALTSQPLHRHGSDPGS
Method: The activity of the compounds against the hERG ion channel was tested using a binding assay in stably transfected Human Embryonic Kidney cells (hERG-HEK293). hERG-HEK293 cells were cultured in MEM medium (Invitrogen)+10% FBS, glutamine and non-essential amino acids at 37° C. To prepare membranes, cells were homogenised on ice, centrifuged at 650×g for 10 minutes at +4° C., and the resulting supernatant centrifuged at 48000×g for 10 minutes at +4° C. The pellet was resuspended in ice-cold 50 mM Tris-HCl buffer, 5 mM KCl (pH 8.5) and stored frozen in aliquots until use.
For binding assays, membranes were thawed, re-suspended in assay buffer (10 mM HEPES pH 7.4, 0.1% BSA, 5 mM potassium chloride, 0.8 mM magnesium chloride, 130 mM sodium chloride, 1 mM sodium-EGTA, 10 mM glucose) and incubated with ^3H astemizole (1.5 nM), and with or without test compound at 25° C. for 60 minutes. Binding was determined following filtration of the membranes and washing in Tris-HCl buffer by scintillation counting of ^3H astemizole.
The degree of binding of compounds to the hERG ion channel (%) was obtained by measuring the binding of ^3H astemizole and its displacement by test compound. A value of 0% indicates no binding and a value of 100% indicates complete displacement of the radiolabelled ligand.

[3] = Human Hepatocyte Stability; format: in vitro ADME; settings: pooled human hepatocytes, 1 μM, 60 minute incubation; for half-life at 1 μM: read-out: Human t1/2
Method: as §1, §2, §3, §4, §5, §6

[4] = pooled human hepatocytes, 1 μM, 60 minute incubation
[5] = Homo sapiens, THP-1, 9-point concentration range from 10 μM to 10 nM

CC1(O)CCC(NS(=O)(=O)c2ccc(-c3ccc(F)cc3F)cc2)CC1 (stereo not shown) [ABD900, reference compound]
Human Clint (human hepatocytes; [4]): 6.3 uL/min/million cells | Human t1/2 (human hepatocytes; [4]): 3.67 h | IC50 ([1]; 9-point concentration range from 10 μM to 10 nM): 1100 nM | Solubility ([2]; pH 6.8): 120 µg/mL (≈ 315 µM)

CC(=O)N1CCC(CS(=O)(=O)c2ccc(-c3ccc(F)c(F)c3)cc2)CC1 [NASMP-02, 1-(4-(((3′,4′-Difluoro-[1,1′-biphenyl]-4-yl)sulfonyl)methyl)piperidin-1-yl)ethan-1-one]
inhibition at 60 min, 30 µM (hERG): 30% | metabolic stability (in words) (human hepatocytes): exceptionally good stability | hepatocyte CLint at 1 μM [3]: < 3 µL/min/1e6 cells | half-life at 1 μM [3]: > 7.67 h | IC50 [1, 5]: 7900 nM | solubility at 16 h [2]: 32 µg/mL (≈ 81.3 µM)

CC(=O)N1CCC(CS(=O)(=O)c2ccc(-c3cc(F)ccc3F)cc2)CC1 [NASMP-03, 1-(4-(((2′,5′-Difluoro-[1,1′-biphenyl]-4-yl)sulfonyl)methyl)piperidin-1-yl)ethan-1-one]
inhibition at 60 min, 30 µM (hERG): 20% | metabolic stability (in words) (human hepatocytes): exceptionally good stability | hepatocyte CLint at 1 μM [3]: < 3 µL/min/1e6 cells | half-life at 1 μM [3]: > 7.67 h | IC50 [1, 5]: 3000 nM | solubility at 16 h [2]: 42 µg/mL (≈ 107 µM)

CC(=O)N1CCC(CS(=O)(=O)c2ccc(-c3ccc(C#N)cc3F)cc2)CC1 [NASMP-04, 4′-(((1-Acetylpiperidin-4-yl)methyl)sulfonyl)-2-fluoro-[1,1′-biphenyl]-4-carbonitrile]
IC50 [1, 5]: 1700 nM

CC(=O)N1CCC(CS(=O)(=O)c2ccc(-c3cccc(F)c3F)cc2)CC1 [NASMP-08, 1-(4-(((2′,3′-Difluoro-[1,1′-biphenyl]-4-yl)sulfonyl)methyl)piperidin-1-yl)ethan-1-one]
IC50 [1, 5]: 3800 nM

CC(=O)N1CCC(CS(=O)(=O)c2ccc(-c3ccc(C#N)cc3)c(F)c2)CC1 [NASMP-10, 4′-(((1-Acetylpiperidin-4-yl)methyl)sulfonyl)-2′-fluoro-[1,1′-biphenyl]-4-carbonitrile]
IC50 [1, 5]: 3500 nM

CC(=O)N1CCC(CS(=O)(=O)c2ccc(-c3ncc(F)cc3F)c(F)c2)CC1 [NASMP-11, 1-(4-(((4-(3,5-Difluoropyridin-2-yl)-3-fluorophenyl)sulfonyl)methyl)piperidin-1-yl)ethan-1-one]
hepatocyte CLint at 1 μM [3]: 3.3 µL/min/1e6 cells | half-life at 1 μM [3]: > 1 h | IC50 [1, 5]: 1600 nM

CC(=O)N1CCC(CS(=O)(=O)c2ccc(-c3ccc(F)cc3F)c(C#N)c2)CC1 [NASMP-13, 4-(((1-Acetylpiperidin-4-yl)methyl)sulfonyl)-2′,4′-difluoro-[1,1′-biphenyl]-2-carbonitrile]
IC50 [1, 5]: 1700 nM

CN(C)C(=O)N1CCC(CS(=O)(=O)c2ccc(-c3ccc(F)cc3F)cc2)CC1 [NASMP-14, 4-(((2′,4′-Difluoro-[1,1′-biphenyl]-4-yl)sulfonyl)methyl)-N,N-dimethylpiperidine-1-carboxamide]
hepatocyte CLint at 1 μM [3]: 28.2 µL/min/1e6 cells | half-life at 1 μM [3]: 0.97 h | IC50 [1, 5]: 1400 nM

CC(=O)N1CCC(C)(CS(=O)(=O)c2ccc(-c3ccc(Cl)cc3C#N)cc2)CC1 [NASMP-16, 4′-(((1-Acetyl-4-methylpiperidin-4-yl)methyl)sulfonyl)-4-chloro-[1,1′-biphenyl]-2-carbonitrile]
metabolic stability (in words) (human hepatocytes): exceptionally good stability | half-life at 1 μM [3]: > 1 h | IC50 [1, 5]: 1500 nM

CC(=O)N1CCC(C(F)(F)S(=O)(=O)c2ccc(-c3ccc(F)cc3F)cc2)CC1 [NASMP-19, 1-(4-(((2′,4′-Difluoro-[1,1′-biphenyl]-4-yl)sulfonyl)difluoromethyl)piperidin-1-yl)ethan-1-one]
inhibition at 60 min, 30 µM (hERG): 21% | hepatocyte CLint at 1 μM [3]: 11.7 µL/min/1e6 cells | half-life at 1 μM [3]: 1.92 h | IC50 [1, 5]: 2800 nM | solubility at 16 h [2]: 27 µg/mL (≈ 62.9 µM)

CC(=O)N1CCC(CS(=O)(=O)c2ccc(-c3cc(F)cc(F)c3)cc2)CC1 [NASMP-20, 1-(4-(((3′,5′-Difluoro-[1,1′-biphenyl]-4-yl)sulfonyl)methyl)piperidin-1-yl)ethan-1-one]
inhibition at 60 min, 30 µM (hERG): 39% | metabolic stability (in words) (human hepatocytes): exceptionally good stability | hepatocyte CLint at 1 μM [3]: < 3 µL/min/1e6 cells | half-life at 1 μM [3]: > 7.67 h | IC50 ([1]; Homo sapiens, THP-1, 8-point concentration range from 100 μM to 100 nM): 18100 nM | solubility at 16 h [2]: 37 µg/mL (≈ 94 µM)
